Test results reported in patent publication US10858367B2, “Compounds” (GLAXOSMITHKLINE INTELLECTUAL PROPERTY DEVELOPMENT LIMITED, priority 2017, dated 2020).

molecular target: T1, LRRK2 Ser935 phosphorylation in SH-SY5Y cells over-expressing recombinant full length LRRK2 (Homo sapiens, UniProt Q5S007); experiment: Recombinant cellular LRRK2 AlphaScreen assay; format: cell-based; conditions: human neuroblastoma SH-SY5Y cells, BacMam full length LRRK2, 60 minutes with compound, read-out: pIC50 in the recombinant cellular LRRK2 AlphaScreen assay (converted)
T1 construct: A BacMam virus expressing full length recombinant LRRK2 was purchased from Invitrogen; host or cells: SH-SY5Y human neuroblastoma cells transduced with BacMam LRRK2 virus
T1 sequence (Q5S007 whole entry): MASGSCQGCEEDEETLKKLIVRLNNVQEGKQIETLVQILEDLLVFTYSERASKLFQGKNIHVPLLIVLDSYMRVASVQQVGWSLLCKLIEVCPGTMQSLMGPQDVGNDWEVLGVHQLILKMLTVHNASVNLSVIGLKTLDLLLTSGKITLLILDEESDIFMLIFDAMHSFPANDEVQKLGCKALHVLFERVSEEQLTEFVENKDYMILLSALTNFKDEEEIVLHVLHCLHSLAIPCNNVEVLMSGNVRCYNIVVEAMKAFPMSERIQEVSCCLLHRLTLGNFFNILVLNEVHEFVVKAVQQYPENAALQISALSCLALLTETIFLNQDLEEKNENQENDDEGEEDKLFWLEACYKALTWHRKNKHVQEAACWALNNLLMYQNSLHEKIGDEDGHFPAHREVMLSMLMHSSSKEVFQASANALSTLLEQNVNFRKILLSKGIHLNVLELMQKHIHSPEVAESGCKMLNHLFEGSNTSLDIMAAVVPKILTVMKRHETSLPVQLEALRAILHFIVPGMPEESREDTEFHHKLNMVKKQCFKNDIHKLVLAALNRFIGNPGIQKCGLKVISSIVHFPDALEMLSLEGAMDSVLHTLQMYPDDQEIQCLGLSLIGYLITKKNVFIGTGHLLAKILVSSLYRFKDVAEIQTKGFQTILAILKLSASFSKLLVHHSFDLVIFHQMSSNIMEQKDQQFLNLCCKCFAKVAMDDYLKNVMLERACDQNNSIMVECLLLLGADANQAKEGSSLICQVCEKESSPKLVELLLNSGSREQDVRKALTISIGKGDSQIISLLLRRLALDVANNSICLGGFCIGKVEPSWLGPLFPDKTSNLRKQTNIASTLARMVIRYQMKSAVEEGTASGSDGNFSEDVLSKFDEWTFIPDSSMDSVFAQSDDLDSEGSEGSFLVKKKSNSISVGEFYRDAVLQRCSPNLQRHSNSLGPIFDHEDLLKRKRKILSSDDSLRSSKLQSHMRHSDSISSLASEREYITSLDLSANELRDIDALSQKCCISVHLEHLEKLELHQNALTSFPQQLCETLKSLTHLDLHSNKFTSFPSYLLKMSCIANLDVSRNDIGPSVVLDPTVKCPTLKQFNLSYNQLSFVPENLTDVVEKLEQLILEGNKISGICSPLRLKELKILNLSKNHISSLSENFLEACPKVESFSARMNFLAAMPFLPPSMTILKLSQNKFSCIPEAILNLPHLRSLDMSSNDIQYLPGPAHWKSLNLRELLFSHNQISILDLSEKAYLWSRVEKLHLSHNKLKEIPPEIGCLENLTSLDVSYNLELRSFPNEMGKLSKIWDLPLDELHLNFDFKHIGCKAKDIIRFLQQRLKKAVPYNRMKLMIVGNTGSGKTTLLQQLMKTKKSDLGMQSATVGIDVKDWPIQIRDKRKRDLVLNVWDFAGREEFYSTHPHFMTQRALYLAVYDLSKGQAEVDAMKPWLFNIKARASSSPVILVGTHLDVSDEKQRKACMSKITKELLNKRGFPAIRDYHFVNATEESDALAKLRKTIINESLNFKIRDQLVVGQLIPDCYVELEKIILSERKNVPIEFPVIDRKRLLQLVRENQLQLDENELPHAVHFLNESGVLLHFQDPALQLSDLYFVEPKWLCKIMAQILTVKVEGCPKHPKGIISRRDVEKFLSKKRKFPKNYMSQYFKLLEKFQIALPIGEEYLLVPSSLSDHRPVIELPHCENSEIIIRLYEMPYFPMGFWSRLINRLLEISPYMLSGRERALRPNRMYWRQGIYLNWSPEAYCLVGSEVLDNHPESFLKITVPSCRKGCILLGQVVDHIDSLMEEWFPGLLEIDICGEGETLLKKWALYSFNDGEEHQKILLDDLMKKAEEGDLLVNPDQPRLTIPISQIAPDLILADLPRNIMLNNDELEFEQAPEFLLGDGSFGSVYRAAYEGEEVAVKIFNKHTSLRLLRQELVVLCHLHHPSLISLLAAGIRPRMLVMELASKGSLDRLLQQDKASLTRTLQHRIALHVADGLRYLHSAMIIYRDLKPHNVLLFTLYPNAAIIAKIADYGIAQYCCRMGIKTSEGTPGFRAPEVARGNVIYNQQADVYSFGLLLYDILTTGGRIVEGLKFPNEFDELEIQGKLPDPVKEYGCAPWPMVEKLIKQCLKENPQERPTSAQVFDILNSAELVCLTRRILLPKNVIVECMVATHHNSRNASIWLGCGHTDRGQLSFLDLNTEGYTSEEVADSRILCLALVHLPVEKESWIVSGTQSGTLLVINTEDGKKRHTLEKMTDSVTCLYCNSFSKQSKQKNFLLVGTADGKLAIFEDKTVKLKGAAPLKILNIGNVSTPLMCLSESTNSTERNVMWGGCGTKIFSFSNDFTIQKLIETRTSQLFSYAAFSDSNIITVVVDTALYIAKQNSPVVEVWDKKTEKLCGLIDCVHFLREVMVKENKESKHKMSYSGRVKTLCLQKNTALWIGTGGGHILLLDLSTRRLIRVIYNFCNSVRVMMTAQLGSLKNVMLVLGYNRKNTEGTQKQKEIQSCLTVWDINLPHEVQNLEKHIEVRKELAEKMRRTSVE
Procedure, shortened: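 SH-SY5Y cells transduced with BacMam full-length human LRRK2 (MOI 50) for 24 h, then treated with compound (top final 10 μM) for 60 min at 37° C. Lysate pSer935 LRRK2 quantified by AlphaScreen using anti-pS935 and total-LRRK2 antibodies. Values from sigmoidal dose-response fit.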

IC50 | Structure (SMILES)
≤ 1000 nM | COc1nc(N2CC3CCC(C2)O3)cc(-n2ncc3cc(C)c(C4CCNCC4)cc32)n1 [Example E62, 3-(2-methoxy-6-(5-methyl-6-(piperidin-4-yl)-1H-indazol-1-yl)pyrimidin-4-yl)-8-oxa-3-azabicyclo[3.2.1]octane 2,2,2-trifluoroacetate]
≤ 1000 nM | Cc1nc(N2CC3CCC(C2)O3)cc(-n2ncc3cc(C)c(C4CCNCC4)cc32)n1 [Example E63, 3-(2-methyl-6-(5-methyl-6-(piperidin-4-yl)-1H-indazol-1-yl)pyrimidin-4-yl)-8-oxa-3-azabicyclo[3.2.1]octane 2,2,2-trifluoroacetate]
≤ 10 nM | [2H]C([2H])([2H])Oc1nc(N2C[C@H]3C[C@@H]2CO3)cc(-n2ncc3cc(C)c(C4CCN(C5COC5)CC4)cc32)n1 [Example E72, (1R,4R)-5-(6-(5-methyl-6-(1-(oxetan-3-yl)piperidin-4-yl)-1H-indazol-1-yl)-2-(trideuteriummethoxy)pyrimidin-4-yl)-2-oxa-5-azabicyclo[2.2.1]heptane]
≤ 1000 nM | [2H]C([2H])([2H])Oc1nc(N2C[C@@H]3C[C@H]2CO3)cc(-n2ncc3cc(C)c(C4CCN(C5COC5)CC4)cc32)n1 [Example E73, (1S,4S)-5-(6-(5-methyl-6-(1-(oxetan-3-yl)piperidin-4-yl)-1H-indazol-1-yl)-2-(trideuteriummethoxy)pyrimidin-4-yl)-2-oxa-5-azabicyclo[2.2.1]heptane]
≤ 1000 nM | COc1nc(N2C[C@@H]3C[C@H]2CO3)cc(-n2ncc3cc(C)c(C4CCN(CCC(=O)O)CC4)cc32)n1 [Example E165, 3-(4-(1-(6-((1S,4S)-2-oxa-5-azabicyclo[2.2.1]heptan-5-yl)-2-methoxypyrimidin-4-yl)-5-methyl-1H-indazol-6-yl)piperidin-1-yl)propanoic Acid]
≤ 1000 nM | Cc1nc(N2C[C@H]3C[C@@H]2CO3)cc(-n2ncc3cc(C)c(C4C5CN(C6CCOC6)CC54)cc32)n1 (stereo partly drawn) [Example E179, (1R,4R)-5-(2-methyl-6-(5-methyl-6-(3-((S)-tetrahydrofuran-3-yl)-3-azabicyclo-[3.1.0]hexan-6-yl)-1H-indazol-1-yl)pyrimidin-4-yl)-2-oxa-5-azabicyclo[2.2.1]heptane]
≤ 1000 nM | Cc1nc(N2C[C@H]3C[C@@H]2CO3)cc(-n2ncc3cc(C)c(C4C5CN(CCS(C)(=O)=O)CC54)cc32)n1 (stereo partly drawn) [Example E180, (1R,4R)-5-(2-methyl-6-(5-methyl-6-(3-(2-(methylsulfonyl)ethyl)-3-azabicyclo[3.1.0]hexan-6-yl)-1H-indazol-1-yl)pyrimidin-4-yl)-2-oxa-5-azabicyclo[2.2.1]heptane]

Continued, compound first:

Structure (SMILES) | IC50
Cc1nc(N2C[C@H]3C[C@@H]2CO3)cc(-n2ncc3cc(C)c(C4CCN(C(=O)CO)CC4)cc32)n1 [Example E53, 1-(4-(1-(6-((1R,4R)-2-oxa-5-azabicyclo[2.2.1]heptan-5-yl)-2-methylpyrimidin-4-yl)-5-methyl-1H-indazol-6-yl)piperidin-1-yl)-2-hydroxyethanone] | ≤ 1000 nM
Cc1nc(N2C[C@@H]3C[C@H]2CO3)cc(-n2ncc3cc(C)c(C4CCN(C(=O)CO)CC4)cc32)n1 [Example E54, 1-(4-(1-(6-((1S,4S)-2-oxa-5-azabicyclo[2.2.1]heptan-5-yl)-2-methylpyrimidin-4-yl)-5-methyl-1H-indazol-6-yl)piperidin-1-yl)-2-hydroxyethanone] | ≤ 1000 nM
Cc1nc(N2C[C@H]3C[C@@H]2CO3)cc(-n2ncc3cc(C)c(C4CCN(C5COC5)CC4C)cc32)n1 (stereo partly drawn) [Example E55, (1R,4R)-5-(2-methyl-6-(5-methyl-6-(3-methyl-1-(oxetan-3-yl)piperidin-4-yl)-1H-indazol-1-yl)pyrimidin-4-yl)-2-oxa-5-azabicyclo[2.2.1]heptane] | ≤ 1000 nM
[2H]C1(N2CCC(c3cc4c(cnn4-c4cc(N5C[C@H]6C[C@@H]5CO6)nc(OC)n4)cc3C)CC2)COC1 [Example E56, (1R,4R)-5-(6-(6-(1-(3-deuterooxetan-3-yl)piperidin-4-yl)-5-methyl-1H-indazol-1-yl)-2-methoxypyrimidin-4-yl)-2-oxa-5-azabicyclo[2.2.1]heptane] | ≤ 10 nM
[2H]C1(N2CCC(c3cc4c(cnn4-c4cc(N5C[C@@H]6C[C@H]5CO6)nc(OC)n4)cc3C)CC2)COC1 [Example E57, (1S,4S)-5-(6-(6-(1-(3-deuterooxetan-3-yl)piperidin-4-yl)-5-methyl-1H-indazol-1-yl)-2-methoxypyrimidin-4-yl)-2-oxa-5-azabicyclo[2.2.1]heptane] | ≤ 1000 nM
COc1nc(N2C[C@H]3C[C@@H]2CO3)cc(-n2ncc3cc(C)c(C4CCNCC4)cc32)n1 [Example E58, (1R,4R)-5-(2-methoxy-6-(5-methyl-6-(piperidin-4-yl)-1H-indazol-1-yl)pyrimidin-4-yl)-2-oxa-5-azabicyclo[2.2.1]heptane] | ≤ 1000 nM
COc1nc(N2C[C@@H]3C[C@H]2CO3)cc(-n2ncc3cc(C)c(C4CCNCC4)cc32)n1 [Example E59, (1S,4S)-5-(2-methoxy-6-(5-methyl-6-(piperidin-4-yl)-1H-indazol-1-yl)pyrimidin-4-yl)-2-oxa-5-azabicyclo[2.2.1]heptane] | ≤ 1000 nM
COc1nc(N2CC3CC(C2)O3)cc(-n2ncc3cc(C)c(C4CCNCC4)cc32)n1 [Example E60, 3-(2-methoxy-6-(5-methyl-6-(piperidin-4-yl)-1H-indazol-1-yl)pyrimidin-4-yl)-6-oxa-3-azabicyclo[3.1.1]heptane 2,2,2-trifluoroacetate] | ≤ 1000 nM
Cc1nc(N2CC3CC(C2)O3)cc(-n2ncc3cc(C)c(C4CCNCC4)cc32)n1 [Example E61, 3-(2-methyl-6-(5-methyl-6-(piperidin-4-yl)-1H-indazol-1-yl)pyrimidin-4-yl)-6-oxa-3-azabicyclo[3.1.1]heptane 2,2,2-trifluoroacetate] | ≤ 1000 nM
Cc1nc(N2CC3CC(C2)C3C(=O)O)cc(-n2ncc3cc(C)c(C4CCOCC4)cc32)n1 (stereo not drawn) [Example E80, 3-{2-Methyl-6-[5-methyl-6-(tetrahydro-pyran-4-yl)-indazol-1-yl]-pyrimidin-4-yl}-3-aza-bicyclo[3.1.1]heptane-6-carboxylic Acid] | ≤ 1000 nM
COc1nc(N2CC3CC(C2)C3C(=O)O)cc(-n2ncc3cc(C)c(OC(C)C)cc32)n1 (stereo not drawn) [Example E81, 3-(6-(6-isopropoxy-5-methyl-1H-indazol-1-yl)-2-methoxypyrimidin-4-yl)-3-azabicyclo[3.1.1]heptane-6-carboxylic Acid] | ≤ 10 nM
